Test results published in patent US20240209016A1, “FLUORESCENT NUCLEOSIDE PHOSPHATES” (STEALTH LABELS BIOTECH AB, priority 2021, published 2024).

Assays:
[1] = system: Huh-7 cells; experiment: Uptake kinetics monitored by flow cytometry; format: cell-based, human; conditions: 2.5 μM; for exposure time at which uptake reaches plateau / saturation: 5 min to 4 h exposure
Method: For flow cytometry experiments, cells were seeded in a 48-well plate as described above. For kinetics experiments of the uptake, solutions of 2.5 μM of compounds 7 or 17 in CCM were added. Control samples were CCM, containing an equal volume of DPBS instead of FBA-TP. All treatments were done in triplicate. The experiment was setup such that all samples could be harvested at the same time at the end of the experiment. The FBA-TP solutions where therefore added at different time points. At the end of the experiment, the cells were washed twice with DPBS, and thereafter harvested by addition of 0.25% trypsin-EDTA. The trypsin was neutralized by adding DPBS with 2% added FBS and samples were transferred to a 96 U-bottom well plate for high throughput readout.
Measurements were generally performed on a BD LSRFortessa flow cytometer with an BD High Throughput Sampler (HTS). The system was connected to the software BD FACSDiva. Samples were excited using a 405 nm laser and emission passed through a bandpass filter centred at 450 nm (±20 nm). Uptake kinetics experiments were repeated twice. For monophosphate compounds, a Luminex CellStream flow cytometer with a high throughput sampler (HTS) connected to the CellStream Acquisition software was used. Excitation wavelength was 405 nm, with the emission passing through a 456/51 nm bandpass filter.

[2] = system: Huh-7 cells; experiment: Uptake competition with ATP or adenosine; format: cell-based, human; conditions: 2.5 μM compound, 4 h, increasing ATP or adenosine
Method: Uptake of 2CNqATP and pATP was compared with natural adenosine triphosphate (ATP) or adenosine (both purchased from Sigma-Aldrich). The readout is based on the fluorescence of the compounds, detected in living cells by flow cytometry or in cell lysate using a microplate reader following co-administration with increasing concentrations of natural ATP or adenosine.
Cells were seeded in a 96-well plate. Treatment solutions with ATP or adenosine were prepared by stepwise dilution in CCM to reach the concentrations shown in FIG. 7. 2CNqATP or pATP were added at a concentration of 2.5 μM. The cells were incubated for 4 h at 37° C. and 5% CO2. Cell morphology was checked under a light microscope.
For flow cytometry, the treated cells were washed three times with DPBS and detached with 0.25% trypsin-EDTA, which was then neutralized with CCM. Samples were transferred to a 96 U-well plate for high throughput readout on a BD LSRFortessa flow cytometer. Samples were excited using a 405 nm laser and emission passed through a bandpass filter centred at 450 nm (±20 nm).
For lysate readout, cells were lysed in 5x passive lysis buffer (Promega) for 1 h rocking at room temperature (ca. 22° C.). Fluorescence was recorded on an Optima Blue Fluostar plate reader (BMG Labtech). 2CNqATP was excited at 355 nm (±20 nm) and emission was detected using bandpass filter centered at 460 nm (±12 nm). […]

[3] = system: Huh-7 cells; experiment: Cellular incorporation into RNA (emission of extracted RNA); format: cell-based, human; conditions: 24 h exposure; for emission of RNA extracted from exposed cells (in-cellulo RNA labelling): excitation 350 nm (2CNqA) or 370 nm (pA)
Method: RNA Extraction: Cells were seeded in 12-well plates as described above. Treatment solutions were prepared by diluting compounds 7 and 17 to a concentration of 2.5 μM or 5 μM in CCM. Conditioned medium was removed from the cells and treatment solutions were added. For control cells CCM alone was added. Cells were incubated for 24 h at 37° C. and 5% CO2. For RNA extraction and purification, a QIAGEN RNeasy Mini Kit was used, following the manufacturer's protocol. Briefly, the cells were washed with DPBS, lysed, homogenized by 12 times passing it through a 20-gauge needle (0.9 mm outer diameter), and added to an equal volume of ethanol. The resulting solution was transferred to a RNeasy spin column and centrifuged. Then, binding buffer was added on top of the column, where after it was centrifuged again. The column-bound RNA was washed five times with washing buffer, with a centrifugation step between each addition. To elute the extracted RNA, 30 μL of the provided RNase-free water was applied to the column and centrifuged. This step was repeated twice to increase the yield of extracted RNA.
Three control samples were prepared to examine potential FBA-TP interferences with the extraction procedure, as well as non-covalent binding between the FBA-TP and RNA. 1) FBA-TP was added to the kit's lysate buffer to a concentration of 2.5 μM and treated in the same way starting from the homogenization step. 2) Unexposed cells were seeded and lysed as described above and FBA-TP was thereafter added directly to the lysate to make up a 2.5 μM final concentration. […] The concentration and purity of the RNA extracted from the unexposed cells were determined using a NanoDrop 2000 spectrophotometer (Thermo Scientific) and FBA-TP was added to reach a final concentration of 2.5 μM in the solution. […]
Absorption and Emission Readout of cellular RNA: Absorption spectra of extracted and purified RNA samples and controls were recorded on a Cary 4000 spectrometer (Agilent Technologies) between 200 nm and 600 nm. Emission spectra were measured on a SPEX Fluorolog 3 spectrofluorimeter (Jobin Yvon Horiba). […]

[4] = system: Huh-7 cells; experiment: alamarBlue cell viability (metabolic activity) assay; format: cell-based; conditions: lower doses, 24 h exposure
Method: The Huh-7 human liver cell line was used.
After 24 h exposure with compounds 7 or 17, the conditioned medium was removed from the cells and used for the LDH leakage assay (see below). Freshly prepared alamarBlue cell viability reagent (Invitrogen, diluted 1:10 in CCM) was added, followed by incubation for 3 h at 37° C. and 5% CO2. The resulting resorufin fluorescence was read using an Optima Fluostar plate reader (BMG Labtech) Ex: 544 nm/Em: 590 nm. Dimethyl sulfoxide 5% and CCM alone (i.e. compounds 7 and 17 0 μM) were used as positive and negative controls for cell death, respectively.

[5] = system: Huh-7 cells; experiment: Lactate dehydrogenase (LDH) leakage assay (cell membrane integrity); conditions: all exposure conditions, 24 h; in parity with untreated control cells
Method: The Huh-7 human liver cell line was used. […] For sub-cultivation the adherent cells were washed twice with DPBS, containing no calcium or magnesium, and detached with 0.25% trypsin ethylenediaminetetraacetic acid 1x (trypsin-EDTA, Gibco, with phenol red). For seeding, the cells were counted after trypsin neutralization, diluted to the desired number of cells (Table 2) and thereafter incubated at 37° C. with 5% CO2 for 24 h before experiments.
Prior to treatment, the conditioned medium was removed from the Huh-7 cells, and the compounds (stock solution in DPBS diluted in CCM) were added to the cells for different exposure times. Unexposed cells were treated the same way, with the same amount of added DPBS to CCM, instead of the compounds. Two different cytotoxicity assays (alamarBlue to measure metabolic activity and LDH leakage to measure cell membrane integrity) were performed in parallel using the cells and the culture medium from each sample, respectively. Treatments were done in triplicates and the experiment was repeated twice.
Lactate Dehydrogenase (LDH) Leakage Assay: To test for released LDH, the CyQUANT LDH Cytotoxicity Assay kit (Invitrogen) was used. […] Maximum LDH release were determined by treating cells with a 1:10 dilution of lysis buffer in serum free medium for 30 min at 37° C. and 5% CO2.

Row | Substance | lag phase of uptake [1] [min] | increase in cellular fluorescence over time (comparison) ([1]; 5 min to 4 h) | exposure time at which uptake reaches plateau / saturation [1] [h] | uptake competition with ATP and adenosine [2] | emission of RNA extracted from exposed cells (in-cellulo RNA labelling) [3] | comparison of cell viability at lower doses [4] | exposure time at which fluorescence is significantly over the initial (t=0) level [1] [min] | emission maximum of RNA extracted from exposed cells ([3]; excitation at 350 nm) [nm] | level of released LDH [5]
1 | ((2R,3S,4R,5R)-5-(2,3,5,6-tetraazacyclopenta[de]tetracen-2(6H)-yl)-3,4-dihydroxytetrahydrofuran-2-yl)methyl hydrogen triphosphate [pATP] | 15 | significantly slower | > 4 | also competes with ATP and adenosine, but the effect is considerably weaker | on the same level as the controls |  |  |  | 
2 | ((2R,3S,4R,5R)-5-(8-cyano-2,3,5,6-tetraazaaceanthrylen-2(6H)-yl)-3,4-dihydroxytetrahydrofuran-2-yl)methyl hydrogen triphosphate [2CNqATP] |  |  | 2 | competes with both ATP and adenosine with a stronger competition effect for ATP at low concentrations | significant emission peak | slightly more toxic than pATP | 5 | 460 | about 10%
